According to patent US8906946B2, “TRPM8 receptor antagonists” (Dompe' S.p.A., priority 2011, dated 2014):
pIC50: −log10 of the molar value.

biological target: T1, human TRPM8 (Homo sapiens, UniProt Q7Z2W7); assay: High-throughput FLIPR TETRA calcium fluorescence assay for TRPM8 antagonists in HEK293/hTRPM8 cells; format: cell-based; set-up: expressed in transfected cells; conditions: agonist Cooling Agent 10 at EC80, Ca2+ fluorescence
Source text: A functional cell-based assay for the identification of TRPM8 receptor antagonists, optimised to allow high throughput screening at FLIPR^TETRA, was developed in HEK293 cells by stable pure clone selection and functional characterization with a fluorescent calcium sensitive dye.
TRPM8 was cloned into the multiple clonig site of pcDNA3 mammalian expression vector; the obtained construct pcDNA3/hTRPM8 was fully sequence verified and used for the transfection of HEK293 cell line. HEK293 cells stably transfected with TRPM8 gene were maintained in Minimum essential medium. The cells were transfected with the pcDNA3/hTRPM8 vector by electroporation and then selected with medium containing 0.8 mg/ml G418 for 10-15 days.
The following commercial compounds were used as ligands: • Activator: Cooling Agent 10 (Takasago CAS N. 87061-04-9) • Blocker: Capsazepine (SIGMA cat #D—5879)
The experimental activities were performed using FLIPR^TETRA instruments.
HEK293 cells stably transfected with TRPM8 gene were maintained in Minimum essential medium.
The TRPM8 cell line was analysed for the response to a library of compounds using a Ca^2+ mobilization-dependent fluorescence signal in 384 wells microtiter plate format. The analysis was performed using the FLIPR^TETRA (MDC) with the ICCD Camera.
The execution of the assay involved the use of three microtiter plates:
1. Assay plate, containing cells loaded with dye and prepared as follows:
Cells were seeded at 15000 c/well in Poly-D-Lysine coated 384 wells Microtiter Plates in complete medium (25 μl/well).
24 h after seeding, the cell plates were washed with Tyrode assay buffer by the Microplate Washer and 10 μL of Tyrode assay buffer was left in each well.
Cells were then loaded with 10 μL/well of the Fluo-4 NW dye solution by CyBi®-Well pipettor. Each bottle of Fluo4-NW dye (Molecular Probes cat. #F36206, component A) was re-suspended in 8 mL of Tyrode assay buffer and supplemented with 100 μL of water-soluble probenecid (MolecularProbes cat.#F36206, component B).
Dye loaded cell plates were incubated for 1 h at room temperature.
2. Compound Dilution Plate (FIG. 1), containing diluted test compounds, formulated as follows: • Column 1: wells containing Assay Buffer plus DMSO 0.5% final • Column 2: wells alternating Max Signal Control in first injection (Maximum Response: Cooling Agent 10 at EC100, 100 μM) and Min Signal Control in first injection (Assay buffer plus 0.5% DMSO final); • Columns 3-22: wells containing Assay Buffer plus 0.5% DMSO final. To these wells the compounds to be tested were added at 3× concentration. • Column 23: alternating wells of Max Signal Control in second injection (Assay buffer) and Min Signal Control in second injection (Antagonist Capsazepine IC100, 50 μM) in Assay buffer plus 0.5% DMSO final; • Column 24: wells containing Capsazepine (Antagonist) at 8 concentrations in duplicate at final concentrations of […] in Assay buffer plus 0.5% DMSO final.
3. Activator Plate (FIG. 2), containing agonist Cooling Agent 10 at EC80, formulated as follows: • Column 1: Cooling Agent 10 (Agonist) at 8 concentrations dose response in duplicate at final concentrations of […] in Assay buffer; • Columns 2-24: Cooling Agent 10 (Agonist) at EC80 (3 fold concentrated, 20 μM final) in Assay buffer.
The test was carried out according to a procedure comprising the following steps: • 1. The samples contained in the wells of the Compound Plate were added to the corresponding wells of the Assay Plate by the FLIPR^TETRA, thus resulting in the addition in Columns 3-22 of the test compounds at 3× concentration to the cells of the assay plates. No mixing was performed in the assay wells and the signal of the emitted fluorescence was recorded for 300 seconds. • 2.

T1 sequence (Q7Z2W7 whole entry): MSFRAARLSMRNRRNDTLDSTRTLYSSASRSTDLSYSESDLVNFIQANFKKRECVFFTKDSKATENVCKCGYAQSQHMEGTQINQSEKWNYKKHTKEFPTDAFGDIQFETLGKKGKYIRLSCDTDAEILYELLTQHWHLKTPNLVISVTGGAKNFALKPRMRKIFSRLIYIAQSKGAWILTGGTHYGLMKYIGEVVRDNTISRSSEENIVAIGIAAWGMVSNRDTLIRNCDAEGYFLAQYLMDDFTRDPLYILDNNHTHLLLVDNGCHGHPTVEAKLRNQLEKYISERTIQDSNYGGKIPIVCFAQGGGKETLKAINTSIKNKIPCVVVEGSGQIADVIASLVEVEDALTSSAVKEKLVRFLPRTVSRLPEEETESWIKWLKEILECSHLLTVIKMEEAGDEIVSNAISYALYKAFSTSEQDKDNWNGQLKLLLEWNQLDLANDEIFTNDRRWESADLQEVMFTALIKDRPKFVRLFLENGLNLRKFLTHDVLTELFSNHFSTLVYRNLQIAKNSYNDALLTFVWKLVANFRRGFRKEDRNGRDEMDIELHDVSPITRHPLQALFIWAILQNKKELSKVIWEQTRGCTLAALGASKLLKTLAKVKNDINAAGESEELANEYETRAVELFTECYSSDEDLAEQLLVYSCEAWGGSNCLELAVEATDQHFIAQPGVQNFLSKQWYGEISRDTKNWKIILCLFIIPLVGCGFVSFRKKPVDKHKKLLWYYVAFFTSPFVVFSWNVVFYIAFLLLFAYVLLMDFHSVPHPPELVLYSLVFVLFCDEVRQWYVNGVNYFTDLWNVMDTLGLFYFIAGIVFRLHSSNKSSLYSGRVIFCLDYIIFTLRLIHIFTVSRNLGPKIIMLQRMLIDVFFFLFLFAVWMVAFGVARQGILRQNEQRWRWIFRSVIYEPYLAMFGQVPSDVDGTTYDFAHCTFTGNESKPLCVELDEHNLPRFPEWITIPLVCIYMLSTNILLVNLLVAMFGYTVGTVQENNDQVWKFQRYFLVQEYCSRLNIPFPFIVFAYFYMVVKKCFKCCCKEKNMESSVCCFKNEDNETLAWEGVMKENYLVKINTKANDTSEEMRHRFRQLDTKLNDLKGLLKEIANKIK

CC(C)(COc1ccc2ccccc2c1Cl)NCc1ccco1 [Compound 8, 1-[(1-chloronaphthalen-2-yl)oxy]-N-(furan-2-ylmethyl)-2-methylpropan-2-amine] was tested. Which pIC50 did it give?
The pIC50 was > 5.00.

How did the pIC50 turn out when CC(C)(COc1ccc2ccccc2c1Cl)NCc1ccccn1 [Compound 13, 1-[(1-chloronaphthalen-2-yl)oxy]-2-methyl-N-(pyridin-2-ylmethyl)propan-2-amine] was run?
Its pIC50 is > 5.00.

How did the pIC50 turn out when N#Cc1ccc2c(Cl)c(OCCNCc3ccccn3)ccc2c1 [Compound 55, 5-chloro-6-{2-[(pyridin-2-ylmethyl)amino]ethoxy}naphthalene-2-carbonitrile] was run?
The pIC50 was > 5.00.

With Cn1cccc1CNC(C)(C)COc1ccc2ccccc2c1Cl [Compound 14, 1-[(1-chloronaphthalen-2-yl)oxy]-2-methyl-N-[(1-methyl-1H-pyrrol-2-yl)methyl]propan-2-amine] as the molecule, how does the pIC50 read?
The pIC50 was > 5.00.

How did the pIC50 turn out when O=S(=O)(CCNCc1ccco1)c1ccc2ccccc2c1Cl [Compound 25, 2-[(1-chloronaphthalen-2-yl)sulfonyl]-N-(furan-2-ylmethyl)ethanamine] was run?
Its pIC50 is > 5.00.

Clc1c(OCCNCc2ccccn2)ccc2ccccc12 [Compound 6, 2-[(1-chloronaphthalen-2-yl)oxy]-N-(pyridin-2-ylmethyl)ethanaminium] was tested. Which pIC50 did it give?
Its pIC50 is > 5.00.

With Clc1ccc(CNCCCc2ccc3ccccc3c2Cl)o1 [Compound 34, N-[(5-chlorofuran-2-yl)methyl]-3-(1-chloronaphthalen-2-yl)propan-1-amine] as the molecule, how does the pIC50 read?
The pIC50 was > 5.00.

With Clc1c(CCCNCc2ccco2)ccc2ccccc12 [Compound 32, 3-(1-chloronaphthalen-2-yl)-N-(furan-2-ylmethyl)propan-1-amine] as the molecule, how does the pIC50 read?
The pIC50 was > 5.00.

Fc1c(OCCNCc2ccccn2)ccc2ccccc12 [Compound 53, 2-[(1-fluoronaphthalen-2-yl)oxy]-N-(pyridin-2-ylmethyl)ethanamine] was tested. Which pIC50 did it give?
The pIC50 was > 5.00.

How did the pIC50 turn out when Fc1c(OCCNCc2cccs2)ccc2ccccc12 [Compound 52, 2-[(1-fluoronaphthalen-2-yl)oxy]-N-(thiophen-2-ylmethyl)ethanamine] was run?
Its pIC50 is > 5.00.

With Cc1ccc(CNCCCc2ccc3ccccc3c2Cl)o1 [Compound 33, 3-(1-chloronaphthalen-2-yl)-N-[(5-methylfuran-2-yl)methyl]propan-1-amine] as the molecule, how does the pIC50 read?
Its pIC50 is > 5.00.

How did the pIC50 turn out when N#Cc1ccc2c(Cl)c(OCCNCc3cccs3)ccc2c1 [Compound 60, 5-chloro-6-{2-[(thiophen-2-ylmethyl)amino]ethoxy}naphthalene-2-carbonitrile] was run?
Its pIC50 is > 5.00.

With Fc1c(OCCNCc2ccco2)ccc2ccccc12 [Compound 48, 2-[(1-fluoronaphthalen-2-yl)oxy]-N-(furan-2-ylmethyl)ethanamine] as the molecule, how does the pIC50 read?
The pIC50 was > 5.00.

How did the pIC50 turn out when Clc1ccc(CNCCCc2ccc3ccccc3c2Cl)s1 [Compound 35, 3-(1-chloronaphthalen-2-yl)-N-[(5-chlorothiophen-2-yl)methyl]propan-1-amine] was run?
Its pIC50 is > 5.00.

Clc1c(OCCNCc2cccs2)ccc2ccccc12 [Compound 5, 2-[(1-chloronaphthalen-2-yl)oxy]-N-(thiophen-2-ylmethyl)ethanaminium] was tested. Which pIC50 did it give?
The pIC50 was > 5.00.

biological target: T1, human TRPM8; assay: FLIPR384 capsazepine antagonist activity on menthol agonist response in selected TRPM8 clone; format: cell-based; set-up: expressed in transfected cells; conditions: FLIPR384, antagonist from 100 nM to 316 μM
Description: The experimental activities were performed using FLIPR instruments.
Patch clamp recordings were also obtained in voltage-clamp configuration on HEK/TRPM8 clones in order to verify the receptor pharmacology and to determine the agonist dose-response curve and EC50 value. HEK293 cells were […] having 1.5-2.5 MΩ resistance were used to record currents following drug application. […] No menthol-induced currents were recorded in non transfected HEK293 cells.

Oc1cc2c(cc1O)CN(C(=S)NCCc1ccc(Cl)cc1)CCC2 [capsazepine, Capsazepine] was tested. Which pIC50 did it give?
Its pIC50 is 4.70.
